Laboratory results published in US20260216109A1, “TREATMENT OF SKIN DISORDERS WITH SHORT CHAIN FATTY ACIDS” (Temple University-Of The Commonwealth System of Higher …, priority 2023, published 2026).

Columns and labels:
InflammaSkin® models = assay: Hematoxylin & Eosin (H&E) staining of InflammaSkin models (skin structure, integrity, viability); assay type: cell-based, human; settings: Example 1; Day 7; Day 1-6: 1 μM Otezla or SCFA (45 μg/mL Ca-propionate + 1 mM Ca-/Mg-butyrate) systemic, 0.05% Betamethasone topical; vs untreated InflammaSkin
Procedure: (§1) A total of 16 biopsies of 15 mm diameter were produced from a single donor. Two NativeSkin® models with 12/15 mm silicon rings were produced from the biopsies according to standard procedures in place, and cultured under cell culture conditions (37° C., 5% CO2, max. humidity) for 7 days with 2 mL of standard NativeSkin® medium renewed every day. Fourteen PSO-InflammaSkin® models with 12/15 mm silicon rings were produced by inducing in situ activation and Th17/Th1 polarization of skin resident T cells with a proprietary cocktail, and cultured under cell culture conditions (37° C., 5% CO2, max. humidity) for 7 days with 2 mL of PSO-InflammaSkin® culture medium renewed every day.
(§2) From Day 1 to Day 6, models were systemically treated with 1 μM Otezla or Short Chain Fatty Acids (SCFAs), or topically treated with positive control 0.05% Betamethasone
In these experiments, the SCFAs administered were 45 μg/mL of Ca-propionate and 1 mM mixture of salts (Ca-butyrate and Mg-butyrate). […]
Skin structure and integrity and viability were evaluated using Hematoxylin & Eosin (H&E) staining following treatment with Betamethasone, […] Otezla® (Apremilast), or SCFAs comprising butyric acid and propionic acid. […] Therefore, the donor sample was determined to remain viable over the course of the culture in the absence of inflammation/T-cell activation.

K16 = assay: Anti-K16 immunostaining of InflammaSkin models; assay type: cell-based, human; settings: Example 1; Day 7; Day 1-6: 1 μM Otezla or SCFA (45 μg/mL Ca-propionate + 1 mM Ca-/Mg-butyrate) systemic, 0.05% Betamethasone topical
Procedure: as §1, §2
(§3) In these experiments, the SCFAs administered were 45 μg/mL of Ca-propionate and 1 mM mixture of salts (Ca-butyrate and Mg-butyrate).
At Day 7, supernatants were collected and stored at −80° C. and skin models of all conditions were carefully unmolded. Skin biopsies were re-punched to eliminate the area under the silicon ring, fixed in 10% buffered formalin and processed for paraffin wax embedding. […]

IL-17A = assay: Multiplex (MSD V-PLEX) cytokine release, InflammaSkin: IL-17A; assay type: cell-based, human; settings: Day 7 supernatant, 0.05% Betamethasone topical, vs untreated InflammaSkin
Procedure: as §1, §2, §3
At Day 7, supernatants were collected and stored at −80° C. and skin models of all conditions were carefully unmolded. […]
Human pro-inflammatory cytokines released in the supernatant were quantified using the V-PLEX Human IL-17A Kit (MesoScale Discovery, reference: K151RFD-1) and V-PLEX Human TNFα Kit (MesoScale Discovery, reference: K151QWD-1). […]
Human pro-inflammatory cytokines released in the supernatant were quantified using the V-PLEX Human IL-17A Kit (MesoScale Discovery, reference: K151RFD-1) and V-PLEX Human custom Pro-inflammatory. […]
Samples were diluted four times for plate 2 and two times for plate 1. Samples and standards were assessed in duplicate. Plates were read on MesoScale Discovery Quickpleax SQ 120 plate reader and values expressed in pg/mL.
A statistical analysis was performed. […] First, the distribution's normality of the two compared group was assessed. […] If the two distributions were normal, the homogeneity of variances was assessed using a Fisher test on the variances. […]

[1] = Body weight in IMQ-induced psoriasis model mice; assay type: in vivo, mouse
Procedure: Body weight was determined daily in all mice over the whole period of each study. Oral treatment with either Apremilast (25 mg/kg BID) or SFA002 (fixed dose BID) started with the disease induction on day 0. Etanercept (10 mg/kg Q3D s.c.) served as a technical control. Healthy control and IMQ control group received no placebo treatment.

SMILES: CCOc1cc([C@@H](CS(C)(=O)=O)N2C(=O)c3cccc(NC(C)=O)c3C2=O)ccc1OC [Otezla, Apremilast]
- H&E: incidence of pyknosis, vacuolization and epidermal/dermal separation (InflammaSkin® models): reduce the incidence of pyknosis, vacuolization and epidermal/dermal separation
- K16 expression in the epidermis (K16): decreased the expression of K16 in the epidermis
- IL-17A levels decreased by (IL-17A; Example 1, 1 μM Otezla or SCFA (45 μg/mL Ca-propionate + 1 mM Ca-/Mg-butyrate) systemic): about 95%
- IL-17A secretion (IL-17A; Example 2, 1 μM Otezla or SCFA systemic): significantly reduced
- body weight loss ([1]; Example 4, Apremilast 25 mg/kg BID, SCFA fixed dose BID (120 + 2,146 mg/kg/day), oral): no effect on body weight loss
- body weight loss ([1]; Example 7, Apremilast 2.5, 5, 7 mg/kg BID, SCFA (120 + 1,100 mg/kg/day), alone or in combination, vs vehicle-treated IMQ disease controls): no positive influence on body weight loss
- body weight loss ([1]; Example 9, Apremilast 25 mg/kg BID, SCFA fixed dose, alone or in combination, vs vehicle-treated IMQ disease controls): no positive influence on body weight loss
- body weight loss ([1]; Example 12, Apremilast 12 or 25 mg/kg BID, fixed dose SCFA, alone or in combination, vs vehicle-treated IMQ disease controls): no positive influence on body weight loss
